Assay results as given in ChEMBL document CHEMBL4229455, “Synthesis and anticancer activity of novel bisindolylhydroxymaleimide derivatives with potent GSK-3 kinase inhibition” (Bioorg Med Chem, 2018).

Legend:
Hs-578T = test: Cytotoxicity against human Hs 578T cells assessed as cell growth at 10 uM after 48 hrs by SRB assay relative to control; format: functional; conditions: read-out: Activity
OVCAR-8 = test: Cytotoxicity against human OVCAR8 cells assessed as cell growth at 10 uM after 48 hrs by SRB assay relative to control; format: functional; conditions: OVCAR-8, 48 h, read-out: Activity
HT-29 = test: Cytotoxicity against human HT-29 cells assessed as cell growth at 10 uM after 48 hrs by SRB assay relative to control; format: functional; conditions: HT-29, 48 h, read-out: Activity
T47D = test: Cytotoxicity against human T47D cells assessed as cell growth at 10 uM after 48 hrs by SRB assay relative to control; format: functional; conditions: read-out: Activity
[1] = Inhibition of domestic porcine brain full length […] using RRKHAAIGSpAYSITA as substrate in presence of [gamma-33P]ATP; set-up: species or system Sus scrofa domesticus
786-0 = test: Cytotoxicity against human 786-O cells assessed as cell growth at 10 uM after 48 hrs by SRB assay relative to control; format: functional; conditions: 786-0, 48 h, read-out: Activity
HOP-62 = test: Cytotoxicity against human HOP62 cells assessed as cell growth at 10 uM after 48 hrs by SRB assay relative to control; format: functional; conditions: HOP-62, 48 h, read-out: Activity
[2] = biological target: Cyclin-dependent kinase 5/CDK5 activator 1 (Homo sapiens, UniProt Q00535); test: Inhibition of recombinant full length human CDK5/p25 expressed in bacteria using histone H1 as substrate in presence of [gamma-33P]ATP
Chain of Cyclin-dependent kinase 5/CDK5 activator 1 (Q00535 whole entry): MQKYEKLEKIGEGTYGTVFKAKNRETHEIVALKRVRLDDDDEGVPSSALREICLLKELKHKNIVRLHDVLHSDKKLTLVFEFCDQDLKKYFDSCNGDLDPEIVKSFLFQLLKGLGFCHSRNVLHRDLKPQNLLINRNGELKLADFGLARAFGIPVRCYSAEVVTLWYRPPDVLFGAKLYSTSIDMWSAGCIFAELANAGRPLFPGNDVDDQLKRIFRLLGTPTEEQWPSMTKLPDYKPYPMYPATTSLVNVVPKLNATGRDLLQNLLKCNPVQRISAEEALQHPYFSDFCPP
Chain of Cyclin-dependent kinase 5/CDK5 activator 1 (Q15078 whole entry, further chain): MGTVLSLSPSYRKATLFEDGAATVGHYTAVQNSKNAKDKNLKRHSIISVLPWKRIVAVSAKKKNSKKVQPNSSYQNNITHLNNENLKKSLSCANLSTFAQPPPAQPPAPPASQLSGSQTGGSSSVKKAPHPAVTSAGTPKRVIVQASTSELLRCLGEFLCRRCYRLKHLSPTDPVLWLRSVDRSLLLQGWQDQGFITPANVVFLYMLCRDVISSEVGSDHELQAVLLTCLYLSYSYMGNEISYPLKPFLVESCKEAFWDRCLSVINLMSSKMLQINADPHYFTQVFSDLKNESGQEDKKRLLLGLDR

MOLT-4 = test: Cytotoxicity against human MOLT4 cells assessed as cell growth at 10 uM after 48 hrs by SRB assay relative to control; format: functional; conditions: MOLT-4, 48 h, read-out: Activity
K562 = test: Cytotoxicity against human K562 cells assessed as cell growth at 10 uM after 48 hrs by SRB assay relative to control; format: functional; conditions: K562, 48 h, read-out: Activity
HCT-116 = test: Cytotoxicity against human HCT116 cells assessed as cell growth at 10 uM after 48 hrs by SRB assay relative to control; format: functional; conditions: HCT-116, 48 h, read-out: Activity
SK-OV-3 = test: Cytotoxicity against human SKOV3 cells assessed as cell growth at 10 uM after 48 hrs by SRB assay relative to control; format: functional; conditions: SK-OV-3, 48 h, read-out: Activity
[3] = biological target: Receptor-interacting serine/threonine-protein kinase 3 (Homo sapiens, UniProt Q9Y572); test: Inhibition of recombinant full length human RIPK3 expressed in baculovirus infected Sf9 insect cells using MBP as substrate in presence of [gamma-33P]ATP
Chain of Receptor-interacting serine/threonine-protein kinase 3 (Q9Y572 whole entry): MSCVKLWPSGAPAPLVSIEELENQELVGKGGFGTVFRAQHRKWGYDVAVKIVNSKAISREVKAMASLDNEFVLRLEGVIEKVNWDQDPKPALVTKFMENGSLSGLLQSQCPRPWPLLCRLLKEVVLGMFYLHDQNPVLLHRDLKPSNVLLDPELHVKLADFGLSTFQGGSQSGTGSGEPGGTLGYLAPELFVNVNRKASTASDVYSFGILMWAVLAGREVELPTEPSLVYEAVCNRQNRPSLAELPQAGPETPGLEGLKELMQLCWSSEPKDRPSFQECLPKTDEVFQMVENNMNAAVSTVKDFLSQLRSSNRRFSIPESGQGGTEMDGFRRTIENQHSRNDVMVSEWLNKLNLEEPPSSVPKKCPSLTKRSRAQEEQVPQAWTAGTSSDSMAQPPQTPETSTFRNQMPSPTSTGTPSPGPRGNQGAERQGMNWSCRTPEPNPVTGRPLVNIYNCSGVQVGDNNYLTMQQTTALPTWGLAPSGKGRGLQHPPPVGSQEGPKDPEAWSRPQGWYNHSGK

OVCAR-3 = test: Cytotoxicity against human OVCAR3 cells assessed as cell growth at 10 uM after 48 hrs by SRB assay relative to control; format: functional; conditions: OVCAR-3, 48 h, read-out: Activity
[4] = biological target: Dual specificity tyrosine-phosphorylation-regulated kinase 1A (Rattus norvegicus) (UniProt Q63470); test: Inhibition of recombinant rat DYRK1A kinase domain expressed in bacteria assessed as residual activity at 10 uM using KKISGRLSPIMTEQ as substrate in presence of [gamma-33P]ATP
SF-295 = test: Cytotoxicity against human SF295 cells assessed as cell growth at 10 uM after 48 hrs by SRB assay relative to control; format: functional; conditions: SF-295, 48 h, read-out: Activity
HL-60(TB) = test: Cytotoxicity against human HL-60(TB) cells assessed as cell growth at 10 uM after 48 hrs by SRB assay relative to control; format: functional; conditions: HL-60, 48 h, read-out: Activity
M14 = test: Cytotoxicity against human M14 cells assessed as cell growth at 10 uM after 48 hrs by SRB assay relative to control; format: functional; conditions: M14, 48 h, read-out: Activity
ACHN = test: Cytotoxicity against human ACHN cells assessed as cell growth at 10 uM after 48 hrs by SRB assay relative to control; format: functional; conditions: read-out: Activity
RXF 393 = test: Cytotoxicity against human RXF393 cells assessed as cell growth at 10 uM after 48 hrs by SRB assay relative to control; format: functional; conditions: RXF 393, 48 h, read-out: Activity
RPMI-8226 = test: Cytotoxicity against human RPMI8226 cells assessed as cell growth at 10 uM after 48 hrs by SRB assay relative to control; format: functional; conditions: RPMI-8226, 48 h, read-out: Activity
UO-31 = test: Cytotoxicity against human UO31 cells assessed as cell growth at 10 uM after 48 hrs by SRB assay relative to control; format: functional; conditions: UO-31, 48 h, read-out: Activity
NCI-H322M = test: Cytotoxicity against human NCI-H322M cells assessed as cell growth at 10 uM after 48 hrs by SRB assay relative to control; format: functional; conditions: read-out: Activity
EKVX = test: Cytotoxicity against human EKVX cells assessed as cell growth at 10 uM after 48 hrs by SRB assay relative to control; format: functional; conditions: read-out: Activity

Cn1cc(C2=C(c3cn(CCCCCC(=O)O)c4ccccc34)C(=O)N(O)C2=O)c2ccccc21
growth at 10 µM (Hs-578T): 102% | growth at 10 µM (OVCAR-8): 87.7% | growth at 10 µM (HT-29): 105% | growth at 10 µM (T47D): 85.4% | IC50 [1]: > 10 µM | growth at 10 µM (786-0): 96.3% | growth at 10 µM (HOP-62): 92% | IC50 [2]: > 10 µM | growth at 10 µM (MOLT-4): 92.6% | growth at 10 µM (K562): 103% | growth at 10 µM (HCT-116): 98.4% | growth at 10 µM (SK-OV-3): 99.8% | IC50 [3]: > 10 µM | growth at 10 µM (OVCAR-3): 104% | Activity [4]: 22% | growth at 10 µM (SF-295): 102% | growth at 10 µM (HL-60(TB)): 103% | growth at 10 µM (M14): 103% | growth at 10 µM (ACHN): 92.9% | growth at 10 µM (RXF 393): 111% | growth at 10 µM (RPMI-8226): 96.8% | growth at 10 µM (UO-31): 63.2% | growth at 10 µM (NCI-H322M): 99.8%

N#CCCCCCn1cc(C2=C(c3cn(CCCCCC#N)c4ccccc34)C(=O)NC2=O)c2ccccc21
growth at 10 µM (Hs-578T): 59.7% | growth at 10 µM (OVCAR-8): 89.9% | growth at 10 µM (HT-29): 84.4% | growth at 10 µM (T47D): 67.6% | IC50 [1]: > 10 µM | growth at 10 µM (HOP-62): 118% | IC50 [2]: > 10 µM | growth at 10 µM (EKVX): 86.5% | growth at 10 µM (HCT-116): 65.9% | growth at 10 µM (SK-OV-3): 57% | IC50 [3]: > 10 µM | growth at 10 µM (OVCAR-3): 72.7% | Activity [4]: 9% | growth at 10 µM (SF-295): 66.2% | growth at 10 µM (M14): 125% | growth at 10 µM (ACHN): 87% | growth at 10 µM (RXF 393): 62.1% | growth at 10 µM (RPMI-8226): 86.8% | growth at 10 µM (UO-31): 72.7% | growth at 10 µM (NCI-H322M): 103%

Cn1cc(C2=C(c3c[nH]c4ccccc34)C(=O)N(O)C2=O)c2ccccc21
growth at 10 µM (Hs-578T): 96.3% | growth at 10 µM (OVCAR-8): 95.6% | growth at 10 µM (HT-29): 81.5% | growth at 10 µM (T47D): 60.9% | IC50 [1]: > 10 µM | growth at 10 µM (786-0): 82% | growth at 10 µM (HOP-62): 67.9% | IC50 [2]: > 10 µM | growth at 10 µM (MOLT-4): 79% | growth at 10 µM (K562): 50.2% | growth at 10 µM (HCT-116): 83.3% | growth at 10 µM (SK-OV-3): 92.1% | IC50 [3]: > 10 µM | growth at 10 µM (OVCAR-3): 84.7% | Activity [4]: 46% | growth at 10 µM (SF-295): 88.8% | growth at 10 µM (HL-60(TB)): 72.8% | growth at 10 µM (M14): 81% | growth at 10 µM (ACHN): 77.9% | growth at 10 µM (RXF 393): 86.3% | growth at 10 µM (RPMI-8226): 51.7% | growth at 10 µM (UO-31): 40.5% | growth at 10 µM (NCI-H322M): 81.9%

CC(C)n1cc(C2=C(c3cn(C)c4ccccc34)C(=O)N(O)C2=O)c2ccccc21
growth at 10 µM (Hs-578T): 91.2% | growth at 10 µM (OVCAR-8): 94.8% | growth at 10 µM (HT-29): 105% | growth at 10 µM (T47D): 87.3% | IC50 [1]: > 10 µM | growth at 10 µM (786-0): 86.5% | growth at 10 µM (HOP-62): 84.6% | IC50 [2]: > 10 µM | growth at 10 µM (MOLT-4): 82.4% | growth at 10 µM (K562): 77.7% | growth at 10 µM (HCT-116): 85.4% | growth at 10 µM (SK-OV-3): 95.8% | IC50 [3]: > 10 µM | growth at 10 µM (OVCAR-3): 87.6% | Activity [4]: 54% | growth at 10 µM (SF-295): 101% | growth at 10 µM (HL-60(TB)): 98.7% | growth at 10 µM (M14): 94.8% | growth at 10 µM (ACHN): 88% | growth at 10 µM (RXF 393): 89.2% | growth at 10 µM (RPMI-8226): 68.3% | growth at 10 µM (UO-31): 56.4% | growth at 10 µM (NCI-H322M): 91.7%
